# Measured values: patent publication US20150231236A1, “METHODS FOR TREATING PATIENTS WITH HYPERCHOLESTEROLEMIA THAT IS NOT ADEQUATELY CONTROLLED BY MODERATE-DOSE STATIN THERAPY” (Regeneron Pharmaceuticals, Inc., priority 2014, published 2015)
# System: patients with hypercholesterolemia at high CV risk not adequately controlled with rosuvastatin (10 mg or 20 mg)
# Assay: Example 3: randomized, double-blind trial, lipid efficacy of mAb316P add-on to rosuvastatin vs EZE add-on or rosuvastatin dose doubling
# Type: in vivo, human
# Conditions: for Proportion of Patients Reaching LDL-C goal (%): week 24, LDL-C <70 mg/dL very high risk or <100 mg/dL high risk; for LS Mean Difference, percent change from baseline of Apo B to week 24 / LS Mean Difference, percent change from baseline of Apo-B to week 12 / LS Mean Difference, percent change from baseline of HDL-C at week 24 / LS Mean Difference, percent change from baseline of Lp(a) to week 24 / LS Mean Difference, percent change from baseline of Non-HDL-C to week 12 / LS Mean Difference, percent change from baseline of Total-C to week 12 / LS Mean Difference, percent change from baseline of Total-C to week 24 / LS Mean Difference, percent change from baseline of calculated LDL-C to week 12 / LS Mean Difference, percent change from baseline of calculated LDL-C to week 24 / LS Mean Difference, percent change from baseline of non-HDL-C to week 24 / Odds Ratio, proportion of patients reaching calculated LDL-C < 70 mg/dL (1.81 mmol/L) at Week 24 / Odds Ratio, proportion of very high CV risk patients reaching calculated LDL-C < 70 mg/dL or high CV risk patients reaching calculated LDL-C < 100 mg/dL at Week 24: ITT Population
# Experimental: The present study was a randomized, double-blind, active-comparator, parallel-group study in patients at high CV risk with non-FH or heFH who are not adequately controlled with rosuvastatin (10 mg or 20 mg) with or without other lipid-modifying therapy (LMT) (excluding EZE). The study design is illustrated in FIG. 2. Patients who entered the study were taking either rosuvastatin 10 mg or rosuvastatin 20 mg. The former patients were randomized to 1 of 3 treatment arms (arms 1 to 3); the latter patients were randomized to 1 of 3 treatment arms (arms 4 to 6). The treatment arms are as follows:
# (B) a double-blind treatment period of 24 weeks. […] The patient/caregiver administered subsequent injections outside of the clinic according to the dosing schedule. […] The last dose of daily oral study drugs was administered at week 24.
# The first injection of study drug was administered at the clinical site, as soon as possible after the patient was randomized into the study. The patient was monitored at the clinical site for at least 30 minutes following the first injection. The patient/caregiver administered subsequent injections outside of the clinic, according to the dosing schedule.
# The primary efficacy endpoint was the percent change in calculated LDL-C from baseline to week 24, which is defined as: 100× (calculated LDL-C value at week 24−calculated LDL-C value at baseline)/calculated LDL-C value at baseline. The baseline calculated LDL-C value was the last LDL-C level obtained before the first double-blind study drug injection. The calculated LDL-C at week 24 was the LDL-C level obtained within the week 24 analysis window and during the main efficacy period. The main efficacy period is defined as the time from the first double-blind study drug injection up to 21 days after the last double-blind study drug injection or up to the upper limit of the week 24 analysis window, whichever comes first.
# Total-C, HDL-C, TG, ApoB, ApoA-1, and Lp(a) were directly measured by a central laboratory. LDL-C was calculated using the Friedewald formula. […] Non-HDL-C was calculated by subtracting HDL-C from the total-C. Ratio ApoB/ApoA-1 was calculated.
# For clarification, the ITT analysis is defined for patients in the ITT population and includes all endpoint assessments in an analysis window, regardless of study treatment dosing status (i.e. includes post-treatment assessments). The on-treatment analysis is defined for patients in the mITT population and includes all endpoint assessments from the first double-blind study drug (capsule or injection, whichever comes first) up to 21 days after the last double-blind study drug injection or 3 days after the last capsule intake, whichever comes first (i.e. includes assessments in the efficacy treatment period).
# [1] = Comparison 1: mAb316P + rosuvastatin 10 mg arm vs. rosuvastatin 20 mg arm
# [2] = Comparison 2: mAb316P + rosuvastatin 10 mg arm vs. EZE + rosuvastatin 10 mg arm
# [3] = Comparison 3: mAb316P + rosuvastatin 20 mg arm vs. rosuvastatin 40 mg arm
# [4] = Comparison 4: mAb316P + rosuvastatin 20 mg arm vs. EZE + rosuvastatin 20 mg arm
substance,measurement,setting,value
"mAb316P: human anti-PCSK9 antibody; heavy chain SEQ ID NO:5, light chain SEQ ID NO:9",Proportion of Patients Reaching LDL-C goal (%),Baseline Rosuvastatin 10 mg,84.9%
same,Proportion of Patients Reaching LDL-C goal (%),Baseline Rosuvastatin 20 mg,66.7%
same,"LS Mean Difference, percent change from baseline of Apo B to week 24",[1],−29.2%
same,"LS Mean Difference, percent change from baseline of Apo-B to week 12",[1],−28.1%
same,"LS Mean Difference, percent change from baseline of HDL-C at week 24",[1],7.4%
same,"LS Mean Difference, percent change from baseline of Lp(a) to week 24",[1],−23.9%
same,"LS Mean Difference, percent change from baseline of Non-HDL-C to week 12",[1],−29.5%
same,"LS Mean Difference, percent change from baseline of Total-C to week 12",[1],−20.1%
same,"LS Mean Difference, percent change from baseline of Total-C to week 24",[1],−20.6%
same,"LS Mean Difference, percent change from baseline of calculated LDL-C to week 12",[1],−32.5%
same,"LS Mean Difference, percent change from baseline of calculated LDL-C to week 24",[1],−34.2%
same,"LS Mean Difference, percent change from baseline of non-HDL-C to week 24",[1],−31.4%
same,"Odds Ratio, proportion of patients reaching calculated LDL-C < 70 mg/dL (1.81 mmol/L) at Week 24",[1],18.6
same,"Odds Ratio, proportion of very high CV risk patients reaching calculated LDL-C < 70 mg/dL or high CV risk patients reaching calculated LDL-C < 100 mg/dL at Week 24",[1],10.2
same,"LS Mean Difference, percent change from baseline of Apo B to week 24",[2],−26.8%
same,"LS Mean Difference, percent change from baseline of Apo-B to week 12",[2],−24.0%
same,"LS Mean Difference, percent change from baseline of HDL-C at week 24",[2],5.1%
same,"LS Mean Difference, percent change from baseline of Lp(a) to week 24",[2],−23.6%
same,"LS Mean Difference, percent change from baseline of Non-HDL-C to week 12",[2],−24.9%
same,"LS Mean Difference, percent change from baseline of Total-C to week 12",[2],−17.2%
same,"LS Mean Difference, percent change from baseline of Total-C to week 24",[2],−20.3%
same,"LS Mean Difference, percent change from baseline of calculated LDL-C to week 12",[2],−32.2%
same,"LS Mean Difference, percent change from baseline of calculated LDL-C to week 24",[2],−36.1%
same,"LS Mean Difference, percent change from baseline of non-HDL-C to week 24",[2],−29.3%
same,"Odds Ratio, proportion of patients reaching calculated LDL-C < 70 mg/dL (1.81 mmol/L) at Week 24",[2],11.6
same,"Odds Ratio, proportion of very high CV risk patients reaching calculated LDL-C < 70 mg/dL or high CV risk patients reaching calculated LDL-C < 100 mg/dL at Week 24",[2],7.8
same,"LS Mean Difference, percent change from baseline of Apo B to week 24",[3],−18.5%
same,"LS Mean Difference, percent change from baseline of Apo-B to week 12",[3],−15.3%
same,"LS Mean Difference, percent change from baseline of HDL-C at week 24",[3],5.7%
same,"LS Mean Difference, percent change from baseline of Lp(a) to week 24",[3],−17.5%
same,"LS Mean Difference, percent change from baseline of Non-HDL-C to week 12",[3],−11.8%
same,"LS Mean Difference, percent change from baseline of Total-C to week 12",[3],−5.5%
same,"LS Mean Difference, percent change from baseline of Total-C to week 24",[3],−12.1%
same,"LS Mean Difference, percent change from baseline of calculated LDL-C to week 12",[3],−10.2%
same,"LS Mean Difference, percent change from baseline of calculated LDL-C to week 24",[3],−20.3%
same,"LS Mean Difference, percent change from baseline of non-HDL-C to week 24",[3],−20.1%
same,"Odds Ratio, proportion of patients reaching calculated LDL-C < 70 mg/dL (1.81 mmol/L) at Week 24",[3],6.1
same,"Odds Ratio, proportion of very high CV risk patients reaching calculated LDL-C < 70 mg/dL or high CV risk patients reaching calculated LDL-C < 100 mg/dL at Week 24",[3],4.7
same,"LS Mean Difference, percent change from baseline of Apo B to week 24",[4],−17.1%
same,"LS Mean Difference, percent change from baseline of Apo-B to week 12",[4],−14.7%
same,"LS Mean Difference, percent change from baseline of HDL-C at week 24",[4],9.0%
same,"LS Mean Difference, percent change from baseline of Lp(a) to week 24",[4],−16.9%
same,"LS Mean Difference, percent change from baseline of Non-HDL-C to week 12",[4],−11.0%
same,"LS Mean Difference, percent change from baseline of Total-C to week 12",[4],−5.5%
same,"LS Mean Difference, percent change from baseline of Total-C to week 24",[4],−8.2%
same,"LS Mean Difference, percent change from baseline of calculated LDL-C to week 12",[4],−12.9%
same,"LS Mean Difference, percent change from baseline of calculated LDL-C to week 24",[4],−25.3%
same,"LS Mean Difference, percent change from baseline of non-HDL-C to week 24",[4],−18.4%
same,"Odds Ratio, proportion of patients reaching calculated LDL-C < 70 mg/dL (1.81 mmol/L) at Week 24",[4],2.5
same,"Odds Ratio, proportion of very high CV risk patients reaching calculated LDL-C < 70 mg/dL or high CV risk patients reaching calculated LDL-C < 100 mg/dL at Week 24",[4],2.3
